Columns and labels:
Mu-type opioid receptor [1] = biological target: T1, Mu-type opioid receptor (Homo sapiens, UniProt P35372); assay: Binding affinity to human mu opioid receptor expressed in CHO cells; format: cell-based
[2] = biological target: T2, Kappa-type opioid receptor (Homo sapiens, UniProt P41145); assay: Binding affinity to human kappa opioid receptor expressed in CHO cells; format: cell-based
[3] = biological target: T3, Delta-type opioid receptor (Homo sapiens, UniProt P41143); assay: Binding affinity to human delta opioid receptor expressed in CHO cells; format: cell-based
Mu-type opioid receptor [4] = biological target: T1, Mu-type opioid receptor; assay: Antagonist activity at human mu opioid receptor expressed in CHO cells assessed as inhibition of DAMGO-stimulated [35S]GTPgammaS binding; format: functional, cell-based
[5] = biological target: T2, Kappa-type opioid receptor; assay: Antagonist activity at human kappa opioid receptor expressed in CHO cells assessed as inhibition of U69,593-stimulated [35S]GTPgammaS binding; format: functional, cell-based
[6] = biological target: T3, Delta-type opioid receptor; assay: Antagonist activity at human delta opioid receptor expressed in CHO cells assessed as inhibition of DPDPE-stimulated [35S]GTPgammaS binding; format: functional, cell-based

T3 sequence (P41143 whole entry): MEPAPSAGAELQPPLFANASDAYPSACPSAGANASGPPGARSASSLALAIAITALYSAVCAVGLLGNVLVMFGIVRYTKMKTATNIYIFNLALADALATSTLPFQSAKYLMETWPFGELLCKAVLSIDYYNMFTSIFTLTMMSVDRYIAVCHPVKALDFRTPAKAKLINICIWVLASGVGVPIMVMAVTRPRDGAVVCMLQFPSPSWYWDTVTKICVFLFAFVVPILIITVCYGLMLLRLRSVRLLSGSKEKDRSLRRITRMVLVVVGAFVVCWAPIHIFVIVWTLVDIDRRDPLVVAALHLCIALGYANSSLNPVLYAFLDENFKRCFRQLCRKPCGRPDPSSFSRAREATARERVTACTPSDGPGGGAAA
T2 sequence (P41145 whole entry): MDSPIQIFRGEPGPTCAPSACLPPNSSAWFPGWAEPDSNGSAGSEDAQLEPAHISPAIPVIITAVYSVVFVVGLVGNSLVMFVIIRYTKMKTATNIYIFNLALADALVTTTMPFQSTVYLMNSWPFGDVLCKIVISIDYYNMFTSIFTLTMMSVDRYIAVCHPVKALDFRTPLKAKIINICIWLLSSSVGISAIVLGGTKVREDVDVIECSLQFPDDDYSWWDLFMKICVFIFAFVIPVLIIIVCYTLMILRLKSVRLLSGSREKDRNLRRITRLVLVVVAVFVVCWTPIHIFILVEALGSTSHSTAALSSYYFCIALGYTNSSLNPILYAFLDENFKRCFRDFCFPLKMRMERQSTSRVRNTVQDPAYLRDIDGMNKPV
T1 sequence (P35372 whole entry): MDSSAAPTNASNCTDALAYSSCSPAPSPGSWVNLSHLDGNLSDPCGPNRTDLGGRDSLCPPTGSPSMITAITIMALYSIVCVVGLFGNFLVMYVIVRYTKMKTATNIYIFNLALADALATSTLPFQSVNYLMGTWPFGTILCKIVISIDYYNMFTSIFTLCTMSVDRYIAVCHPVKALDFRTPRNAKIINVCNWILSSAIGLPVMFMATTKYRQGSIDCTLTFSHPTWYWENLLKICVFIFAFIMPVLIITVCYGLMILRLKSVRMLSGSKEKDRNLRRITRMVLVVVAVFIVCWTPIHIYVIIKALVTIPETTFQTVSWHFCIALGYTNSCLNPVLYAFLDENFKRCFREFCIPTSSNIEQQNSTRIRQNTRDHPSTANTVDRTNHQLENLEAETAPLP

C[C@H]1CN(CC[C@H](O)C2CCCCC2)CC[C@@]1(C)c1ccccc1
Ki (Mu-type opioid receptor [1]): 0.0077 µM
Ki [2]: 0.749 µM
Ki [3]: 0.169 µM
Kb (Mu-type opioid receptor [4]): 0.0016 µM
Kb [5]: 0.0406 µM
Kb [6]: 0.0471 µM
